Measurements from ChEMBL document CHEMBL4507294, “Data for DCP probe MSD-CYP11B2” (2021).

Assays:
[1] = molecular target: D(4) dopamine receptor (Homo sapiens) (UniProt P21917); settings: Compound concentration 10.0 uM
[2] = molecular target: Serine/threonine-protein kinase Nek1 (Homo sapiens) (UniProt Q96PY6); settings: Compound concentration 1000.0 nM
[3] = molecular target: Serine/threonine-protein kinase Nek5 (Homo sapiens) (UniProt Q6P3R8); settings: Compound concentration 1000.0 nM
[4] = tested on: Hepatocyte growth factor receptor (Homo sapiens), P08581 [M1250T]; settings: Compound concentration 1000.0 nM
[5] = molecular target: Ephrin type-B receptor 2 (Homo sapiens) (UniProt P29323); settings: Compound concentration 1000.0 nM
[6] = molecular target: NUAK family SNF1-like kinase 1 (Homo sapiens) (UniProt O60285); settings: Compound concentration 1000.0 nM
[7] = molecular target: Tyrosine-protein kinase receptor Tie-1 (Homo sapiens) (UniProt P35590); settings: Compound concentration 1000.0 nM
[8] = molecular target: Serine/threonine-protein kinase 32B (Homo sapiens) (UniProt Q9NY57); settings: Compound concentration 1000.0 nM
[9] = molecular target: Phosphatidylinositol 4-kinase beta (Homo sapiens) (UniProt Q9UBF8); settings: Compound concentration 1000.0 nM
Chain of Phosphatidylinositol 4-kinase beta (Homo sapiens) (Q9UBF8 2-816 limits assumed): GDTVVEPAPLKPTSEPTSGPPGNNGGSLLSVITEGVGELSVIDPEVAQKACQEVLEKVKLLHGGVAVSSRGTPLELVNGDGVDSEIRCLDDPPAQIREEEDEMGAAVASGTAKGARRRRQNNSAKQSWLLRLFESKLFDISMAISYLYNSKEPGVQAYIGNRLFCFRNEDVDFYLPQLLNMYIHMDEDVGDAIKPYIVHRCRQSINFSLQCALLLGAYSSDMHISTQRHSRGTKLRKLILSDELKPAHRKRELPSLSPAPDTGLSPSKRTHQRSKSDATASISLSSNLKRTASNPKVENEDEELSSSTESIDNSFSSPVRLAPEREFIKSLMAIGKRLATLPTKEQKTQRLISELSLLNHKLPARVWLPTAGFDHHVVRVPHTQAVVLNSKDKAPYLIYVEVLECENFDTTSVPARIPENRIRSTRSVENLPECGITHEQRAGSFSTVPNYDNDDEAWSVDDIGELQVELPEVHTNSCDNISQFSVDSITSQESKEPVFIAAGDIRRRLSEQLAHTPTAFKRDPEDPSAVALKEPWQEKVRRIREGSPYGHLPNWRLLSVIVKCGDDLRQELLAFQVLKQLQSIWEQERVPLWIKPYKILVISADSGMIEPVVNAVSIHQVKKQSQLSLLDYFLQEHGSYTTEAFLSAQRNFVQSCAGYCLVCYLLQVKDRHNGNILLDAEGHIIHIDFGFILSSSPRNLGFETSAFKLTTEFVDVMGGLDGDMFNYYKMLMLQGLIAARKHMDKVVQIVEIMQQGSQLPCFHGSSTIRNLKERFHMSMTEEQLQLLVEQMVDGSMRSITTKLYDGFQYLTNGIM

[10] = tested on: Receptor-type tyrosine-protein kinase FLT3 (Homo sapiens), P36888 [K663Q]; settings: Compound concentration 1000.0 nM
[11] = molecular target: Serine/threonine-protein kinase 24 (Homo sapiens) (UniProt Q9Y6E0); settings: Compound concentration 1000.0 nM
[12] = molecular target: Serine/threonine-protein kinase mTOR (Homo sapiens) (UniProt P42345); settings: Compound concentration 1000.0 nM
[13] = molecular target: D(1B) dopamine receptor (Homo sapiens) (UniProt P21918); settings: Compound concentration 10.0 uM
Chain of D(1B) dopamine receptor (Homo sapiens) (P21918 whole entry): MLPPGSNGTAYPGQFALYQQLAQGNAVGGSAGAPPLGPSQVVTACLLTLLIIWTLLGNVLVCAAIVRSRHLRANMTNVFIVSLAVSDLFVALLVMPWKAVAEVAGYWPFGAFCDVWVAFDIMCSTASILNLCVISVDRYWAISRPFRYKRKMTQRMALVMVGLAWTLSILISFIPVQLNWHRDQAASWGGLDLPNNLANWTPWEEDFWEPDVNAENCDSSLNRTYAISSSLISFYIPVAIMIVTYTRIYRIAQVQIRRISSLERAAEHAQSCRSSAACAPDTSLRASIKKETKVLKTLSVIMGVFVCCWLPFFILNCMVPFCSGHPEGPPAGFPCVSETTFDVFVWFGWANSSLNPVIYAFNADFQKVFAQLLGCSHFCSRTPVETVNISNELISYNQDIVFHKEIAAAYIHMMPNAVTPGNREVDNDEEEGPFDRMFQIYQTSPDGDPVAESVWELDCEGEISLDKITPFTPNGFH

[14] = molecular target: Mitogen-activated protein kinase 13 (Homo sapiens) (UniProt O15264); settings: Compound concentration 1000.0 nM
[15] = tested on: Epidermal growth factor receptor (Homo sapiens), P00533 [G719C]; settings: Compound concentration 1000.0 nM
[16] = molecular target: Cyclin-dependent kinase 18 (Homo sapiens) (UniProt Q07002); settings: Compound concentration 1000.0 nM
[17] = molecular target: Serine/threonine-protein kinase 17B (Homo sapiens) (UniProt O94768); settings: Compound concentration 1000.0 nM
[18] = molecular target: Ribosomal protein S6 kinase alpha-5 (Homo sapiens) (UniProt O75582); settings: Compound concentration 1000.0 nM
Chain of Ribosomal protein S6 kinase alpha-5 (Homo sapiens) (O75582 whole entry, looked up): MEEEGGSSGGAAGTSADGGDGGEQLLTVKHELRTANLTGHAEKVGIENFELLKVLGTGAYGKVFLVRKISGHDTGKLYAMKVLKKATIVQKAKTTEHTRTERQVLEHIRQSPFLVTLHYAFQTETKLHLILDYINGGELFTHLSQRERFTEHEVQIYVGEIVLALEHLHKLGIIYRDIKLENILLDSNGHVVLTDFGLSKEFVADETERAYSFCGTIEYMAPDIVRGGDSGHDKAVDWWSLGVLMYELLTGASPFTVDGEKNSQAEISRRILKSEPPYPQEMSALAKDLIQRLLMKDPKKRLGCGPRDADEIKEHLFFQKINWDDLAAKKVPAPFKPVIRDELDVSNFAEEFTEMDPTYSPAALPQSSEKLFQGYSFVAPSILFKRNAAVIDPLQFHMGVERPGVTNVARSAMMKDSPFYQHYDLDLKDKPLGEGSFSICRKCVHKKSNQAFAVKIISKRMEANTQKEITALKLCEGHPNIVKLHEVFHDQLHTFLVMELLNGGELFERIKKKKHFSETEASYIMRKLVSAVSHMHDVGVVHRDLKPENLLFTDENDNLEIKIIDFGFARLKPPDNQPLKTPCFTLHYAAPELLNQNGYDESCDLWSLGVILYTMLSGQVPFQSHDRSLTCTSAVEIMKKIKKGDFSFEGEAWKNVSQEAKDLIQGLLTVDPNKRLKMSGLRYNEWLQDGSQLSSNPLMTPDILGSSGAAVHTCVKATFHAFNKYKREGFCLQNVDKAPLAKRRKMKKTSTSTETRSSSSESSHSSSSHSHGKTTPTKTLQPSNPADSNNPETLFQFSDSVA

[19] = molecular target: Ribosomal protein S6 kinase alpha-2 (Homo sapiens) (UniProt Q15349); settings: Compound concentration 1000.0 nM
Chain of Ribosomal protein S6 kinase alpha-2 (Homo sapiens) (Q15349 whole entry, canonical isoform): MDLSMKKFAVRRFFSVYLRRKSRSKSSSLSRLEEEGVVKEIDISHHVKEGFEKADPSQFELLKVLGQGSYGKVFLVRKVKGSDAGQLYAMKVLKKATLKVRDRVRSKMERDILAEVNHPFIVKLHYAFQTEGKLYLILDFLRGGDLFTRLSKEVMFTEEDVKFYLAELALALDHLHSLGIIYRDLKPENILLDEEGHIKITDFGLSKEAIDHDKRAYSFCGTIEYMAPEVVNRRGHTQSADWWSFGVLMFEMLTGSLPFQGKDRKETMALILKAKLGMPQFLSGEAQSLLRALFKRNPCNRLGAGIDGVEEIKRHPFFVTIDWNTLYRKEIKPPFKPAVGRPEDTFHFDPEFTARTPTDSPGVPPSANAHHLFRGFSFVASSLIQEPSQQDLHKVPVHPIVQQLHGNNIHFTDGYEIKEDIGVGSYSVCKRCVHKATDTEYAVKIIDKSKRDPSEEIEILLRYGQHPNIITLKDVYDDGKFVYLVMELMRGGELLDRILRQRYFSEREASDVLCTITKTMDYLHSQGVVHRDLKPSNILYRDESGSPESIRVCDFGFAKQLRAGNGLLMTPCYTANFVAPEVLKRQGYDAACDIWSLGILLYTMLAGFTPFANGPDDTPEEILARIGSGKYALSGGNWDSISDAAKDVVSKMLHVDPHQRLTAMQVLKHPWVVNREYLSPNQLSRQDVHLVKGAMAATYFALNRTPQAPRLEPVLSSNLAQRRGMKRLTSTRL

[20] = molecular target: Phosphatidylinositol 4,5-bisphosphate 3-kinase catalytic subunit delta isoform (Homo sapiens) (UniProt O00329); settings: Compound concentration 1000.0 nM
[21] = molecular target: Ribosomal protein S6 kinase alpha-5 (Homo sapiens) (UniProt O75582); settings: Compound concentration 1000.0 nM; remark: listed apart in the source
[22] = molecular target: Myosin light chain kinase 2, skeletal/cardiac muscle (Homo sapiens) (UniProt Q9H1R3); settings: Compound concentration 1000.0 nM
[23] = tested on: Receptor-type tyrosine-protein kinase FLT3 (Homo sapiens), P36888 [D835V]; settings: Compound concentration 1000.0 nM
[24] = molecular target: 1-phosphatidylinositol 3-phosphate 5-kinase (Homo sapiens) (UniProt Q9Y2I7); settings: Compound concentration 1000.0 nM
[25] = tested on: Mast/stem cell growth factor receptor Kit (Homo sapiens), P10721 [D816V]; settings: Compound concentration 1000.0 nM
[26] = molecular target: Serine/threonine-protein kinase PLK1 (Homo sapiens) (UniProt P53350); settings: Compound concentration 1000.0 nM
[27] = molecular target: Dual specificity mitogen-activated protein kinase kinase 2 (Homo sapiens) (UniProt P36507); settings: Compound concentration 1000.0 nM
[28] = molecular target: Tyrosine-protein kinase ABL1 (Homo sapiens) (UniProt P00519); settings: Compound concentration 1000.0 nM
[29] = molecular target: STE20-like serine/threonine-protein kinase (Homo sapiens) (UniProt Q9H2G2); settings: Compound concentration 1000.0 nM
[30] = molecular target: Non-receptor tyrosine-protein kinase TYK2 (Homo sapiens) (UniProt P29597); settings: Compound concentration 1000.0 nM
[31] = molecular target: Alpha-2C adrenergic receptor (Homo sapiens) (UniProt P18825); settings: Compound concentration 10.0 uM
Chain of Alpha-2C adrenergic receptor (Homo sapiens) (P18825 whole entry): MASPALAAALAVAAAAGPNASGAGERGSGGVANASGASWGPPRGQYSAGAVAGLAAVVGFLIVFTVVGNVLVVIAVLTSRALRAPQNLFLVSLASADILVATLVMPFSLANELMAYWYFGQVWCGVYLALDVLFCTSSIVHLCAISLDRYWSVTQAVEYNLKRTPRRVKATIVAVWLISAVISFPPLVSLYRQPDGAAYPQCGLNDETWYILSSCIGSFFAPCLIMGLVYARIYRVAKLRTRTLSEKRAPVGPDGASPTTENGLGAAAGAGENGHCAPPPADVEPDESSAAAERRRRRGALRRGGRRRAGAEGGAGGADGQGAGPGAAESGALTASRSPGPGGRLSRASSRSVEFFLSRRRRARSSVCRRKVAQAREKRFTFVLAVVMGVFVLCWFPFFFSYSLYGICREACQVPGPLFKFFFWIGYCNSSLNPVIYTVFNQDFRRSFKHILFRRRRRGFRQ

[32] = molecular target: Leukocyte tyrosine kinase receptor (Homo sapiens) (UniProt P29376); settings: Compound concentration 1000.0 nM
[33] = molecular target: Proto-oncogene tyrosine-protein kinase Src (Homo sapiens) (UniProt P12931); settings: Compound concentration 1000.0 nM
[34] = molecular target: Ribosomal protein S6 kinase alpha-2 (Homo sapiens) (UniProt Q15349); settings: Compound concentration 1000.0 nM; remark: listed apart in the source
[35] = tested on: Serine/threonine-protein kinase B-raf (Homo sapiens), P15056 [V600E]; settings: Compound concentration 1000.0 nM
[36] = molecular target: Mitogen-activated protein kinase 3 (Homo sapiens) (UniProt P27361); settings: Compound concentration 1000.0 nM
Chain of Mitogen-activated protein kinase 3 (Homo sapiens) (P27361 whole entry): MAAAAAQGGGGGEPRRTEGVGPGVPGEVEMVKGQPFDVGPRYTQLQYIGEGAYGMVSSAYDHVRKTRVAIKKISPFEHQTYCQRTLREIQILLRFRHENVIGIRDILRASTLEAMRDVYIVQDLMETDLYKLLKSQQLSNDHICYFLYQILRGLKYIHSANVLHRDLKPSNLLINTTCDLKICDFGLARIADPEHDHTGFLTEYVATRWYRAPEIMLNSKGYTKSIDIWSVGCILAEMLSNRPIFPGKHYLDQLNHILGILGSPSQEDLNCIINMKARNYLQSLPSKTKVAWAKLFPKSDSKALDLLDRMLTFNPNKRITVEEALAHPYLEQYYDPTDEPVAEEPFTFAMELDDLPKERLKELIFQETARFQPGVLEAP

[37] = molecular target: Activin receptor type-2A (Homo sapiens) (UniProt P27037); settings: Compound concentration 1000.0 nM
[38] = molecular target: Serine/threonine-protein kinase 32A (Homo sapiens) (UniProt Q8WU08); settings: Compound concentration 1000.0 nM
[39] = molecular target: Dual specificity protein kinase CLK1 (Homo sapiens) (UniProt P49759); settings: Compound concentration 1000.0 nM
[40] = molecular target: Serine/threonine-protein kinase PAK 6 (Homo sapiens) (UniProt Q9NQU5); settings: Compound concentration 1000.0 nM
[41] = molecular target: Serine/threonine-protein kinase 33 (Homo sapiens) (UniProt Q9BYT3); settings: Compound concentration 1000.0 nM
[42] = tested on: Phosphatidylinositol 4,5-bisphosphate 3-kinase catalytic subunit alpha isoform (Homo sapiens), P42336 [M1043I]; settings: Compound concentration 1000.0 nM
[43] = molecular target: Inhibitor of nuclear factor kappa-B kinase subunit alpha (Homo sapiens) (UniProt O15111); settings: Compound concentration 1000.0 nM
Chain of Inhibitor of nuclear factor kappa-B kinase subunit alpha (Homo sapiens) (O15111 whole entry): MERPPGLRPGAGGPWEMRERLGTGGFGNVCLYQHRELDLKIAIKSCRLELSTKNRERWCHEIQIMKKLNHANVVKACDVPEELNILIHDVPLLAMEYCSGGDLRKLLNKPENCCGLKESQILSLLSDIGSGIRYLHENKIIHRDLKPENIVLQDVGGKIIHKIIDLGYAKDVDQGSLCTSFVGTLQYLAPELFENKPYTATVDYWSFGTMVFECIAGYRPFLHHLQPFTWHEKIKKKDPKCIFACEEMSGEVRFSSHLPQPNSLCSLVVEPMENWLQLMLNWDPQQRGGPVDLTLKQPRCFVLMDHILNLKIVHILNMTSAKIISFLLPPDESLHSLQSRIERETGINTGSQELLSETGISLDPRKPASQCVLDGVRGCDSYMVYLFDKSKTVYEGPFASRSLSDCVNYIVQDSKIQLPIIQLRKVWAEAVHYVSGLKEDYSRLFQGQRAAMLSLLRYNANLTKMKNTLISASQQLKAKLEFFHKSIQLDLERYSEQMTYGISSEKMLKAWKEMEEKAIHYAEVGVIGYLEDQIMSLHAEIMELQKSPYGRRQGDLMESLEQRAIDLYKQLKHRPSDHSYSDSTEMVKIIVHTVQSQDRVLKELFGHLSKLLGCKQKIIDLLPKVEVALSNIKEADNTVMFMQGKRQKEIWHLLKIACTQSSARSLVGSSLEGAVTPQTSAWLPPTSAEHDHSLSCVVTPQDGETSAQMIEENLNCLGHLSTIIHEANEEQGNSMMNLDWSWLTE

[44] = molecular target: Serine/threonine-protein kinase PAK 1 (Homo sapiens) (UniProt Q13153); settings: Compound concentration 1000.0 nM
Chain of Serine/threonine-protein kinase PAK 1 (Homo sapiens) (Q13153 whole entry): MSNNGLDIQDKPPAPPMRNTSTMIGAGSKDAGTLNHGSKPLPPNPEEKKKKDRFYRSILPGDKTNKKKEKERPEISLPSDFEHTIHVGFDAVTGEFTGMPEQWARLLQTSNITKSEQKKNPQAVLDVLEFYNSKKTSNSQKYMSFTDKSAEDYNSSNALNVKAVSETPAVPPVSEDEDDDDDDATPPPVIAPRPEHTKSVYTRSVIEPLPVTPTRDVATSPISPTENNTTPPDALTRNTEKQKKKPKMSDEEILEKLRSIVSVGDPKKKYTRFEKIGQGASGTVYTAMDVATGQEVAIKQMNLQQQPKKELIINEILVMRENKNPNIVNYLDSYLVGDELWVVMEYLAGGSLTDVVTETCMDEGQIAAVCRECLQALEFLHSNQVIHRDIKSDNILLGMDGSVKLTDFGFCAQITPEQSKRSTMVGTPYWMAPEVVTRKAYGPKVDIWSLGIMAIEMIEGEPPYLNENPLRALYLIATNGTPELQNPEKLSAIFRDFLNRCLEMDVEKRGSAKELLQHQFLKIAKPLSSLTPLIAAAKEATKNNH

[45] = tested on: Proto-oncogene tyrosine-protein kinase receptor Ret (Homo sapiens), P07949 [V804M]; settings: Compound concentration 1000.0 nM

**Q.** CC(C)(O)c1cncc(-c2nc3ccc(F)cc3n2C2CC2)c1 [MSD-CYP11B2] was tested. Which inhibition [1] did it give?
**A.** The inhibition was -5.72%.

**Q.** And the residual activity [2]?
**A.** The residual activity was 100%.

**Q.** And the residual activity [3]?
**A.** The residual activity was 100%.

**Q.** And the residual activity [4]?
**A.** The residual activity was 100%.

**Q.** What about the residual activity [5] of the same compound?
**A.** The residual activity was 99%.

**Q.** What about the residual activity [6] of the same compound?
**A.** The residual activity was 100%.

**Q.** What about the residual activity [7] of the same compound?
**A.** The residual activity was 100%.

**Q.** And the residual activity [8]?
**A.** Its residual activity is 97%.

**Q.** What about the residual activity [9] of the same compound?
**A.** The residual activity was 100%.

**Q.** And the residual activity [10]?
**A.** The residual activity was 100%.

**Q.** And the residual activity [11]?
**A.** The residual activity was 100%.

**Q.** And the residual activity [12]?
**A.** The residual activity was 96%.

**Q.** What about the inhibition [13] of the same compound?
**A.** The inhibition was 21%.

**Q.** What about the residual activity [14] of the same compound?
**A.** The residual activity was 100%.

**Q.** What about the residual activity [15] of the same compound?
**A.** The residual activity was 100%.

**Q.** And the residual activity [16]?
**A.** The residual activity was 100%.

**Q.** What about the residual activity [17] of the same compound?
**A.** Its residual activity is 77%.

**Q.** And the residual activity [18]?
**A.** Its residual activity is 100%.

**Q.** What about the residual activity [19] of the same compound?
**A.** The residual activity was 100%.

**Q.** And the residual activity [20]?
**A.** The residual activity was 100%.

**Q.** And the residual activity [21]?
**A.** Its residual activity is 100%.

**Q.** And the residual activity [22]?
**A.** Its residual activity is 97%.

**Q.** What about the residual activity [23] of the same compound?
**A.** The residual activity was 96%.

**Q.** What about the residual activity [24] of the same compound?
**A.** The residual activity was 99%.

**Q.** And the residual activity [25]?
**A.** The residual activity was 100%.

**Q.** What about the residual activity [26] of the same compound?
**A.** The residual activity was 100%.

**Q.** And the residual activity [27]?
**A.** Its residual activity is 100%.

**Q.** And the residual activity [28]?
**A.** The residual activity was 98%.

**Q.** And the residual activity [29]?
**A.** Its residual activity is 100%.

**Q.** And the residual activity [30]?
**A.** The residual activity was 100%.

**Q.** And the inhibition [31]?
**A.** Its inhibition is 70.1%.

**Q.** What about the residual activity [32] of the same compound?
**A.** The residual activity was 100%.

**Q.** And the residual activity [33]?
**A.** Its residual activity is 100%.

**Q.** What about the residual activity [34] of the same compound?
**A.** The residual activity was 100%.

**Q.** And the residual activity [35]?
**A.** The residual activity was 98%.

**Q.** And the residual activity [36]?
**A.** The residual activity was 100%.

**Q.** And the residual activity [37]?
**A.** The residual activity was 87%.

**Q.** What about the residual activity [38] of the same compound?
**A.** Its residual activity is 100%.

**Q.** What about the residual activity [39] of the same compound?
**A.** Its residual activity is 94%.

**Q.** And the residual activity [40]?
**A.** Its residual activity is 100%.

**Q.** What about the residual activity [41] of the same compound?
**A.** Its residual activity is 100%.

**Q.** What about the residual activity [42] of the same compound?
**A.** The residual activity was 100%.

**Q.** And the residual activity [43]?
**A.** The residual activity was 100%.

**Q.** And the residual activity [44]?
**A.** The residual activity was 100%.

**Q.** What about the residual activity [45] of the same compound?
**A.** The residual activity was 100%.

**Q.** What does the source list for FC(F)(F)c1ccc2c(c1)nc(-c1cccnc1)n2C1CC1 [MSD-CYP11B2-Negative-control]?
**A.** inhibition [1]: -3.28%; residual activity [2]: 100%; residual activity [3]: 100%; residual activity [4]: 100%; residual activity [5]: 83%; residual activity [6]: 100%; residual activity [7]: 100%; residual activity [8]: 100%; residual activity [9]: 94%; residual activity [10]: 100%; residual activity [11]: 100%; residual activity [12]: 80%; inhibition [13]: 22.5%; residual activity [14]: 100%; residual activity [15]: 92%; residual activity [16]: 100%; residual activity [17]: 100%; residual activity [18]: 100%; residual activity [19]: 100%; residual activity [20]: 81%; residual activity [21]: 100%; residual activity [22]: 100%; residual activity [23]: 92%; residual activity [24]: 99%; residual activity [25]: 100%; residual activity [26]: 96%; residual activity [27]: 100%; residual activity [28]: 97%; residual activity [29]: 100%; residual activity [30]: 100%; inhibition [31]: 13.3%; residual activity [32]: 100%; residual activity [33]: 100%; residual activity [34]: 100%; residual activity [35]: 100%; residual activity [36]: 100%; residual activity [37]: 100%; residual activity [38]: 89%; residual activity [39]: 100%; residual activity [40]: 100%; residual activity [41]: 100%; residual activity [42]: 100%; residual activity [43]: 100%; residual activity [44]: 100%; residual activity [45]: 100%
